{"source": "ChEMBL document CHEMBL1201862", "about": "“PubChem BioAssay data set” (2004)", "key": {"[1]": {"assay": "Luminescence Cell-Based Dose Retest to Confirm Inhibitors of Cancer Stem Cells. [Related pubchem assays (depositor defined):AID2717, AID2721]", "format": "functional", "conditions": "Homo sapiens"}, "[2]": {"target": "Heat shock protein HSP 90-alpha (Homo sapiens, UniProt P07900)", "format": "functional, organism-based"}, "[3]": {"system": "INS1", "assay": "beta cell apoptosis inhibitors, cytokine rescue, dose response, luminescence, retest (AID 449756);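 also: cell death triggered by IL-1 beta plus TNF-alpha plus IFN-gamma mixture; protective hits raise ATP signal compared with cytokine alone wells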", "format": "functional, cell-based", "conditions": "Rattus norvegicus"}, "[4]": {"assay": "human group III sPLA2 inhibitors, dose response, biochemical, QFRET, IC50 (AID 743457);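 also: green fluorescence rise as the enzyme cleaves BODIPY PC-A2 in liposomes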"}, "[5]": {"assay": "Shn3 3'UTR reporter inhibitors, dose response, cell-based, Clone20 osteoblasts, firefly luciferase, cherry-picked (AID 624132)", "format": "functional"}, "[6]": {"assay": "HepG2 cell cytotoxicity, dose response, cytotoxicity control for Shn3 inhibitor project, CellTiter-Glo, cherry-picked (AID 624134)", "format": "functional, cell-based"}, "[7]": {"assay": "control 3'UTR Renilla luciferase suppression, dose response, counter-screen for Shn3 inhibitor project, cell-based, Clone20-Shn3RL, cherry-picked (AID 624133)", "format": "functional"}, "[8]": {"assay": "reduction of Shn3 3'UTR firefly luciferase signal, dose response, Schnurri-3 inhibitor project, cell-based, Clone20 osteoblasts, cherry-pick, set 2 (AID 720490);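 also: actives lower the luminescence signal as inhibitors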", "format": "functional"}, "[9]": {"target": "fMet-Leu-Phe receptor (Homo sapiens, UniProt P21462)", "assay": "FPR ligands, dose response (AID 519)", "format": "functional"}, "[10]": {"target": "T1, Luciferin 4-monooxygenase (Photinus pyralis, UniProt P08659)", "assay": "firefly luciferase enzyme inhibitors, dose response, biochemical, luminescence (AID 1891)"}, "[11]": {"assay": "Luminescence Cell-Based Dose Confirmation HTS to Identify Inhibitors of Platelet Dense Granule Release. [Related pubchem assays: 1663 (Primary HTS), 1678 (Summary of Project)]", "format": "functional"}, "[12]": {"target": "Kallikrein-7 (Homo sapiens, UniProt P49862)", "assay": "Fluorescence Intensity-based biochemical primary high throughput dose response assay to identify activators of kallikrein-7 (K7) zymogen."}, "[13]": {"target": "NAD-dependent protein deacylase sirtuin-5, mitochondrial (Homo sapiens, UniProt Q9NXA8)", "assay": "SIRT5 desuccinylase inhibitors, dose response, biochemical, fluorescence imaging, cherry-pick, set 5 (AID 720591);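 also: desuccinylation of succinyl peptide AMC substrate read as fluorescence after trypsin release; potency of inhibitors that lower fluorescence and may act on trypsin instead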"}, "[14]": {"target": "Protein Wnt-3a (Mus musculus, UniProt P27467)", "assay": "SAR analysis of small molecule antagonists of Gli-SUFU in a Wnt3a luminescent reporter assay.", "format": "functional"}, "[15]": {"system": "HEK293", "assay": "inhibitors of LMP1-driven NF-kB reporter, dose response, cell-based, HEK293, luciferase, cherry-pick (AID 588343)", "format": "functional", "conditions": "Homo sapiens"}, "[16]": {"target": "Oxysterols receptor LXR-beta (Homo sapiens, UniProt P55055)", "format": "functional, cell-based"}, "[17]": {"assay": "cells"}, "[18]": {"target": "T1, Luciferin 4-monooxygenase", "assay": "Counter Screen for Luciferase-based Assay Positives. [Related pubchem assays: 620, 618, 411 ]"}, "[19]": {"system": "HT-1080", "assay": "cytotoxicity in HT1080 fibrosarcoma cells, cell-based, fluorescence readout (AID 620)", "format": "functional", "conditions": "Homo sapiens"}, "[20]": {"assay": "HEp-2 cell cytotoxicity, dose response, cytotoxicity control for RSV inhibitor project, HTS (AID 2410)", "format": "functional", "conditions": "human respiratory syncytial virus"}, "[21]": {"system": "Streptococcus sp. 'group A'", "assay": "growth inhibition of control SK(-) GAS strain, dose response, counter-screen for streptokinase expression inhibitor project, luminescence, kanamycin, BacTiterGlo, confirmation (AID 1900)", "format": "functional, organism-based"}, "[22]": {"target": "T2, Heat shock factor protein 1 (Mus musculus, UniProt P38532)", "T2 sequence (P38532 whole entry)": "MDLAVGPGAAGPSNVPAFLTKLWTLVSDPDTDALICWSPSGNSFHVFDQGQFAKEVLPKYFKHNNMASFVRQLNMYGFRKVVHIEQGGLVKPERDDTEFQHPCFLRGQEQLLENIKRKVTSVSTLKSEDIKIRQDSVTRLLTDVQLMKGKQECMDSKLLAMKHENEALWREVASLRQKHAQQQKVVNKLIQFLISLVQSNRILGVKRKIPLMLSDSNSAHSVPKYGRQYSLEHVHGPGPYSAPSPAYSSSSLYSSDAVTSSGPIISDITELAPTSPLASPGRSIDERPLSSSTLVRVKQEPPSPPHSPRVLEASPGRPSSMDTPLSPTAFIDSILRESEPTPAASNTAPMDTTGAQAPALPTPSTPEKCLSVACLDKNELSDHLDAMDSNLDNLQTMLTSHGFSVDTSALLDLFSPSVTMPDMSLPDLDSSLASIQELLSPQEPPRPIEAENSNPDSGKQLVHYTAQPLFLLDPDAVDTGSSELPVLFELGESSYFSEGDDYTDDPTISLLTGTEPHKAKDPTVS", "assay": "inhibition of MG132-induced HSE-luciferase signal, confirmation, cell-based, NIH3T3, luminescence, dose retest (AID 2382);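 also: NIH3T3 fibroblasts with HSF1-driven luciferase reporter stressed by proteasome inhibitor MG132; luminescence from HSF1-driven luciferase expression after 8 hours of MG132 stress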", "format": "functional"}, "[23]": {"target": "T3, Streptokinase A (Streptococcus pyogenes serotype M1, UniProt P10520)", "T3 sequence (P10520 whole entry)": "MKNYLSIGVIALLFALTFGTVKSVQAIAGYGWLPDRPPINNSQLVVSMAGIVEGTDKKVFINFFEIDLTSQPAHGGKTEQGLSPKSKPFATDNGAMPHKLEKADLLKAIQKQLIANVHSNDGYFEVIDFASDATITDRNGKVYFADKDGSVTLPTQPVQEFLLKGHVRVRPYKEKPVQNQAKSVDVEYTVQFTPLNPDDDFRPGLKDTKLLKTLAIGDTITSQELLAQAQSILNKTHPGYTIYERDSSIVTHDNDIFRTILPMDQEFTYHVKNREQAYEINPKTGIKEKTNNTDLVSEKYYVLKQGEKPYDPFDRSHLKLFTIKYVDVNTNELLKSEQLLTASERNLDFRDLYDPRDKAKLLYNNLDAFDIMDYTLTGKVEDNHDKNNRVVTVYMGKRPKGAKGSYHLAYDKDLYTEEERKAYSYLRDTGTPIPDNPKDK", "assay": "S. pyogenes streptokinase expression inhibitors, potency, dose response, plasminogen activation absorbance, OD405 (AID 1914);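 also: secreted streptokinase activity via plasminogen activation per viability signal from cell pellet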", "format": "functional, Streptococcus pyogenes M1 GAS"}, "[24]": {"system": "Streptococcus", "assay": "Group A Streptococcus viability loss, dose response, counter-screen for streptokinase expression inhibitor project, luminescence, BacTiterGlo (AID 1915)", "format": "functional, organism-based"}, "[25]": {"target": "Major prion protein (Homo sapiens, UniProt P04156)", "format": "functional, cell-based"}, "[26]": {"assay": "cells", "remark": "listed apart in the source"}}, "note": "Activity calls are given as the source filed them."}
{"smiles": "O=C(/C=C/c1ccccc1)NC(=S)NNC(=O)c1cnccn1", "values": [{"measurement": "AC50", "setting": "[1]", "result": "8.78 µM (active)"}, {"measurement": "AC50", "setting": "[2]", "result": "2.87 µM (active)"}, {"measurement": "AC50", "setting": "[3]", "result": "1.39 µM (active)"}, {"measurement": "IC50", "setting": "[4]", "result": "66.8 µM (inactive)"}]}
{"smiles": "O=C(Nc1ccc(Cl)cc1)c1cc(S(=O)(=O)N2CCOCC2)cs1", "values": [{"measurement": "AC50", "setting": "[5]", "result": "4.23 µM (active)"}, {"measurement": "AC50", "setting": "[6]", "result": "46.9 µM (active)"}, {"measurement": "AC50", "setting": "[7]", "result": "14.7 µM (active)"}, {"measurement": "AC50", "setting": "[8]", "result": "4.83 µM (active)"}]}
{"smiles": "COc1ccccc1NC(=O)CSc1nnc(Cn2nnc(-c3ccccc3)n2)n1-c1ccccc1", "values": [{"measurement": "Ki", "setting": "[9]", "result": "> 66.7 µM (inactive)"}]}
{"smiles": "CN1CCSc2ccc(C(=O)NCc3ccccc3F)cc21", "values": [{"measurement": "EC50", "setting": "[10]", "result": "> 112 µM (not active)"}, {"measurement": "EC50", "setting": "[11]", "result": "> 112 µM (not active)"}, {"measurement": "EC50", "setting": "[12]", "result": "> 23.2 µM (inactive)"}]}
{"smiles": "COC(=O)C1=CN(CC2CCCO2)C=C(C(=O)OC)C1c1ccsc1", "note": "(configuration not stated)", "values": [{"measurement": "EC50", "setting": "[12]", "result": "> 69.5 µM (inactive)"}]}
{"smiles": "Cc1ccc(SCc2cn3ccccc3n2)cc1", "values": [{"measurement": "AC50", "setting": "[13]", "result": "> 30 µM (inactive)"}]}
{"smiles": "O=C(Nc1cc(N2CCCCC2)ncn1)c1ccccc1", "values": [{"measurement": "IC50", "setting": "[14]", "result": "> 21.8 µM (inactive)"}]}
{"smiles": "c1ccc(-c2nnc(-c3ccccn3)s2)nc1", "values": [{"measurement": "AC50", "setting": "[15]", "result": "4.63 µM (active)"}, {"measurement": "EC50", "setting": "[16]", "result": "> 67.5 µM (inactive)"}, {"measurement": "EC50", "setting": "[17]", "result": "> 67.5 µM (inactive)"}]}
{"smiles": "Cc1ccc2nc(-c3cc(N)cc(N)c3)oc2c1", "values": [{"measurement": "EC50", "setting": "[18]", "result": "1.01 µM (active)"}, {"measurement": "EC50", "setting": "[19]", "result": "> 50 µM (not active)"}, {"measurement": "IC50", "setting": "[4]", "result": "> 122 µM (inactive)"}]}
{"smiles": "OC(COc1ccc2ccccc2c1Br)Cn1cnc(-c2ccccc2)c1", "note": "(configuration not stated)", "values": [{"measurement": "CC50", "setting": "[20]", "result": "9.42 µM (active)"}, {"measurement": "EC50", "setting": "[21]", "result": "6.29 µM (active)"}, {"measurement": "EC50", "setting": "[22]", "result": "> 195 µM (not active)"}, {"measurement": "EC50", "setting": "[23]", "result": "9.22 µM (active)"}, {"measurement": "EC50", "setting": "[24]", "result": "21.7 µM (active)"}, {"measurement": "AC50", "setting": "[1]", "result": "5.02 µM (active)"}, {"measurement": "IC50", "setting": "[25]", "result": "4.17 µM (active)"}, {"measurement": "IC50", "setting": "[26]", "result": "> 138 µM (inactive)"}]}
{"smiles": "O=C(Nc1nc(-c2ccccc2)cs1)C1CCCCN1S(=O)(=O)c1ccccc1", "note": "(configuration not stated)", "values": [{"measurement": "AC50", "setting": "[5]", "result": "5.14 µM (active)"}, {"measurement": "AC50", "setting": "[6]", "result": "58 µM (active)"}, {"measurement": "AC50", "setting": "[8]", "result": "5.89 µM (active)"}]}
